Source: PMC7336998, “Discovery of secondary sulphonamides as IDO1 inhibitors with potent antitumour effects in vivo” (Journal of Enzyme Inhibition and Medicinal Chemistry, 2020)

Columns and labels:
IDO1 = target: T1, IDO1 (Homo sapiens, UniProt P14902); test: HeLa cell-based IDO1/kynurenine assay; settings: for inhibition at 30 µM: percentage inhibition at 30 μM, IFN-γ-treated HeLa cells, kynurenine in media; for IC50: HeLa cells, IFN-γ induced IDO1, kynurenine readout
T1 construct: a human cervical cancer cell line HeLa that endogenously expresses IDO1 upon IFN-γ treatment; endogenous in cells; host or cells: HeLa cells treated with human IFN-γ
Experimental: (§1) The main bioassays performed in the study, including HeLa cell-based IDO1/kynurenine assay, Western blot analysis, T cell proliferation and Treg cell differentiation experiments, were carried out as described previously.
It is well known that IDO1 is broadly expressed in human cancers and is induced by pro-inflammatory cytokines, such as interferon gamma (IFN-γ) and tumour necrosis factor alpha (TNF-α)[41]. Here we utilised a human cervical cancer cell line HeLa that endogenously expresses IDO1 upon IFN-γ treatment to evaluate the IDO1 inhibitory activity of the synthesised compounds by measuring kynurenine secreted into the media. […] Thus, we also employed this cellular assay to detect false positive IDO1 inhibitors and cytotoxic compounds by measuring HeLa cell viability. Clinical candidate navoximod was used as an assay control.

IDO1 protein expression = test: Western blot of IDO1 protein expression in IFN-γ-treated HeLa cells; type: cell-based, human; settings: HeLa cells, IFN-γ 100 ng/mL 24 h, then compounds at their IC50 concentrations for 24 h
Experimental: as §1
To exclude the possibility that these secondary sulphonamides inhibit IDO1 activity by down-regulating IDO1 expression, we utilised Western blot to measure the expression of IDO1 protein in HeLa cells treated with different compounds.
Figure 3. […] (B) The greyscale scanning statistical results of A. (C) HeLa cells were incubated with compound 5d (3, 10, 30 μM) for 24 h. (D) The greyscale scanning statistical results of C. (E) HeLa cells were incubated with compound 5d (3, 10, 30 μM) for 48 h. (F) The greyscale scanning statistical results of E. Data are presented as means ± SEM (n = 3).

T1 sequence (P14902 whole entry): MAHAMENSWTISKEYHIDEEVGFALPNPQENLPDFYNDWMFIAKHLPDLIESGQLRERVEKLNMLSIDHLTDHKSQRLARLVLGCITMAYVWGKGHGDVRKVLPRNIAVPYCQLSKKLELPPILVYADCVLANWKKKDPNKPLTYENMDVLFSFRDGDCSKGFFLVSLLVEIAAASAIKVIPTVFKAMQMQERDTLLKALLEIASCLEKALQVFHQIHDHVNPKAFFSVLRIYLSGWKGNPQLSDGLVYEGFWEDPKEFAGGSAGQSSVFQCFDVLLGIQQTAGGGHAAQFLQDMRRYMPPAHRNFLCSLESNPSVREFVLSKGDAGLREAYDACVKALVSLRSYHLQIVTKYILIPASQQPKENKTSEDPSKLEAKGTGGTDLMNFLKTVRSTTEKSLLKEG

Structure (SMILES)	melting point	inhibition at 30 µM (IDO1)	IC50 (IDO1)	expression of IDO1 protein (IDO1 protein expression)
CC(=O)Nc1ccc(S(=O)(=O)Nc2ccccc2)cc1 [3a, N-(4-(N-Phenylsulfamoyl)phenyl)acetamide]	204 to 206 °C	3.9%		
CC(=O)Nc1ccc(S(=O)(=O)Nc2ccc(C)cc2)cc1 [3b, N-(4-(N-(p-Tolyl)sulfamoyl)phenyl)acetamide]		16.3%		
CC(=O)Nc1ccc(S(=O)(=O)Nc2ccc(C(C)C)cc2)cc1 [3c, N-(4-(N-(4-Isopropylphenyl)sulfamoyl)phenyl)acetamide]	186 to 188 °C	5.9%		
CC(=O)Nc1ccc(S(=O)(=O)Nc2cccc(C(C)C)c2)cc1 [3d, N-(4-(N-(3-Isopropylphenyl)sulfamoyl)phenyl)acetamide]	158 to 160 °C	14.6%		
CC(=O)Nc1ccc(S(=O)(=O)NCc2ccccc2)cc1 [3e, N-(4-(N-Benzylsulfamoyl)phenyl)acetamide]		2.5%		
CC(=O)Nc1ccc(S(=O)(=O)NCc2ccc(Cl)cc2)cc1 [3f, N-(4-(N-(4-Chlorobenzyl)sulfamoyl)phenyl)acetamide]	172 to 174 °C	13.5%		
CC(=O)Nc1ccc(S(=O)(=O)NCc2ccc(C(F)(F)F)cc2)cc1 [3g, N-(4-(N-(4-(Trifluoromethyl)benzyl)sulfamoyl)phenyl)acetamide]	186 to 188 °C	14.5%		
CC(=O)Nc1ccc(S(=O)(=O)NCc2cccc(C(F)(F)F)c2)cc1 [3h, N-(4-(N-(3-(Trifluoromethyl)benzyl)sulfamoyl)phenyl)acetamide]	154 to 156 °C	7.8%		
CC(=O)Nc1ccc(S(=O)(=O)NCCc2ccccc2)cc1 [3i, N-(4-(N-Phenethylsulfamoyl)phenyl)acetamide]	130 to 132 °C	5.9%		
Nc1ccc(S(=O)(=O)Nc2ccccc2)cc1 [4a, 4-Amino-N-phenylbenzenesulfonamide]		12%		
Cc1ccc(NS(=O)(=O)c2ccc(N)cc2)cc1 [4b, 4-Amino-N-(p-tolyl)benzenesulfonamide]		10.8%		
Nc1ccc(S(=O)(=O)NCc2ccccc2)cc1 [4c, 4-Amino-N-benzylbenzenesulfonamide]		7.4%		
Nc1ccc(S(=O)(=O)NCc2ccc(Cl)cc2)cc1 [4d, 4-Amino-N-(4-chlorobenzyl)benzenesulfonamide]	172 to 174 °C	-4.2%		
Nc1ccc(S(=O)(=O)NCc2cccc(Cl)c2)cc1 [4e, 4-Amino-N-(3-chlorobenzyl)benzenesulfonamide]	119 to 121 °C	2.3%	> 50 µM	
Nc1ccc(S(=O)(=O)NCCc2ccccc2)cc1 [4f, 4-Amino-N-phenethylbenzenesulfonamide]		3.1%		

Now from value to compound, other results behind:

melting point	inhibition at 30 µM (IDO1)	IC50 (IDO1)	Structure (SMILES)	expression of IDO1 protein (IDO1 protein expression)
116 to 118 °C	62.5%	22.4 µM	C=CC(=O)Nc1ccc(S(=O)(=O)NCc2ccccc2)cc1 [5a, N-(4-(N-Benzylsulfamoyl)phenyl)acrylamide]	
156 to 158 °C	36%	40.1 µM	C=CC(=O)Nc1ccc(S(=O)(=O)NCc2ccc(OC)cc2)cc1 [5b, N-(4-(N-(4-Methoxybenzyl)sulfamoyl)phenyl)acrylamide]	
190 to 192 °C	40.4%	36.2 µM	C=CC(=O)Nc1ccc(S(=O)(=O)NCc2ccc(Cl)cc2)cc1 [5c, N-(4-(N-(4-Chlorobenzyl)sulfamoyl)phenyl)acrylamide]	
154 to 156 °C	55.2%	26.3 µM	C=CC(=O)Nc1ccc(S(=O)(=O)NCCc2ccccc2)cc1 [5e, N-(4-(N-Phenethylsulfamoyl)phenyl)acrylamide]	
198 to 200 °C	38.2%	39.2 µM	C=CC(=O)Nc1ccc(S(=O)(=O)NCc2ccc(C(F)(F)F)cc2)cc1 [5f, N-(4-(N-(4-(Trifluoromethyl)benzyl)sulfamoyl)phenyl)acrylamide]	
152 to 154 °C	49.5%	30.5 µM	C=CC(=O)Nc1ccc(S(=O)(=O)NCc2cccc(C(F)(F)F)c2)cc1 [5g, N-(4-(N-(3-(Trifluoromethyl)benzyl)sulfamoyl)phenyl)acrylamide]	
178 to 180 °C	70.9%	20.5 µM	C=CC(=O)Nc1ccc(S(=O)(=O)NCc2ccc(F)cc2)cc1 [5h, N-(4-(N-(4-Fluorobenzyl)sulfamoyl)phenyl)acrylamide]	
152 to 154 °C	37.8%	39.5 µM	C=CC(=O)Nc1ccc(S(=O)(=O)NCc2cccc(F)c2)cc1 [5i, N-(4-(N-(3-Fluorobenzyl)sulfamoyl)phenyl)acrylamide]	
178 to 180 °C	65.1%	22.7 µM	C=CC(=O)Nc1ccc(S(=O)(=O)NCc2ccccc2Cl)cc1 [5j, N-(4-(N-(2-Chlorobenzyl)sulfamoyl)phenyl)acrylamide]	
194 to 196 °C	37.5%	42.1 µM	C=CC(=O)Nc1ccc(S(=O)(=O)NCc2ccc(Br)cc2)cc1 [5k, N-(4-(N-(4-Bromobenzyl)sulfamoyl)phenyl)acrylamide]	
148 to 150 °C	44%	37.3 µM	C=CC(=O)Nc1ccc(S(=O)(=O)NCc2ccc(Cl)c(Cl)c2)cc1 [5m, N-(4-(N-(3,4-Dichlorobenzyl)sulfamoyl)phenyl)acrylamide]	
212 to 213 °C	85.9%	13.2 µM	C=CC(=O)Nc1ccc(S(=O)(=O)Nc2ccccc2)cc1 [8a, N-(4-(N-Phenylsulfamoyl)phenyl)acrylamide]	
230 to 232 °C	25.3%		C=CC(=O)Nc1ccc(S(=O)(=O)Nc2ccc(C)cc2)cc1 [8b, N-(4-(N-(p-Tolyl)sulfamoyl)phenyl)acrylamide]	
234 to 235 °C	20.9%		C=CC(=O)Nc1ccc(S(=O)(=O)Nc2ccc(OC)cc2)cc1 [8c, N-(4-(N-(4-Methoxyphenyl)sulfamoyl)phenyl)acrylamide]	
197 to 199 °C	74.8%	13.4 µM	C=CC(=O)Nc1ccc(S(=O)(=O)Nc2cccc(OC)c2)cc1 [8d, N-(4-(N-(3-Methoxyphenyl)sulfamoyl)phenyl)acrylamide]	
212 to 215 °C	69.7%	17.7 µM	C=CC(=O)Nc1ccc(S(=O)(=O)Nc2cccc(F)c2)cc1 [8e, N-(4-(N-(3-Fluorophenyl)sulfamoyl)phenyl)acrylamide]	
217 to 219 °C	89.5%	9.48 µM	C=CC(=O)Nc1ccc(S(=O)(=O)Nc2cccc(Cl)c2)cc1 [8f, N-(4-(N-(3-Chlorophenyl)sulfamoyl)phenyl)acrylamide]	did not influence IDO1 expression
229 to 230 °C	16.4%		C=CC(=O)Nc1ccc(S(=O)(=O)Nc2ncccn2)cc1 [8h, N-(4-(N-(Pyrimidin-2-yl)sulfamoyl)phenyl)acrylamide]	
206 to 208 °C	23.6%		C=CC(=O)Nc1ccc(S(=O)(=O)Nc2onc(C)c2C)cc1 [8i, N-(4-(N-(3,4-Dimethylisoxazol-5-yl)sulfamoyl)phenyl)acrylamide]	
232 to 233 °C	22.7%		C=CC(=O)Nc1ccc(S(=O)(=O)Nc2cc(C)on2)cc1 [8j, N-(4-(N-(5-Methylisoxazol-3-yl)sulfamoyl)phenyl)acrylamide]	
